# Measured values as given in ChEMBL document CHEMBL1142447, “Insights into the mechanism of Na+,K+-ATPase inhibition by 2-methoxy-3,8,9-trihydroxy coumestan” (Bioorg Med Chem, 2008).
# Active and inactive are the calls of the source. The calls are words filed in the database; no cut-off is given here.
# Tests used:
# Rattus norvegicus [1] = species on record: Rattus norvegicus; experiment: Inhibition of rat kidney Na(+)/K(+) ATPase assessed after 2 hrs by Fiske and Subbarow method in presence of DTT
# Rattus norvegicus [2] = species on record: Rattus norvegicus; experiment: Inhibition of rat kidney Na(+)/K(+) ATPase assessed as enzyme activity at 30 uM after 2 hrs by Fiske and Subbarow method relative to control in presence of 1 mM cysteine; parameters: scale not given: the % may be the effect or the level left
# Rattus norvegicus [3] = species on record: Rattus norvegicus; experiment: Inhibition of rat kidney Ca2+/Mg2+ ATPase assessed after 2 hrs by Fiske and Subbarow method in presence of DTT
# Rattus norvegicus [4] = species on record: Rattus norvegicus; experiment: Inhibition of Na(+)/K(+) ATPase in rat kidney assessed as decrease in free sulfydryl groups level at 30 uM after 1 hr by Ellman's method
# [5] = Inhibition of rat stomach H(+)/K(+) ATPase after 2 hrs by Fiske and Subbarow method; assay type: tissue-based
# Rattus norvegicus [6] = species on record: Rattus norvegicus; experiment: Inhibition of rat kidney Na(+)/K(+) ATPase assessed as enzyme activity at 30 uM after 2 hrs by Fiske and Subbarow method relative to control; parameters: scale not given: the % may be the effect or the level left
# Rattus norvegicus [7] = species on record: Rattus norvegicus; experiment: Inhibition of rat kidney Na(+)/K(+) ATPase assessed as enzyme activity at 30 uM after 2 hrs by Fiske and Subbarow method relative to control in presence of 500 uM beta mercaptoethanol; parameters: scale not given: the % may be the effect or the level left
# Rattus norvegicus [8] = species on record: Rattus norvegicus; experiment: Inhibition of rat kidney Na(+)/K(+) ATPase assessed as enzyme activity preincubated for 30 mins after 2 hrs by Fiske and Subbarow method in presence of beta mercaptoethanol
# [9] = Inhibition of rat gastrocnemius Ca2+/Mg2+ ATPase after 2 hrs; assay type: tissue-based
# [10] = Inhibition of rat kidney Na(+)/K(+) ATPase
# Rattus norvegicus [11] = species on record: Rattus norvegicus; experiment: Inhibition of rat kidney Na(+)/K(+) ATPase assessed as enzyme activity at 1 mM after 2 hrs by Fiske and Subbarow method relative to control in presence of 1 mM cysteine; parameters: scale not given: the % may be the effect or the level left
# Rattus norvegicus [12] = species on record: Rattus norvegicus; experiment: Inhibition of rat kidney Na(+)/K(+) ATPase assessed as enzyme activity at 1 mM after 2 hrs by Fiske and Subbarow method relative to control in presence of 500 uM beta mercaptoethanol; parameters: scale not given: the % may be the effect or the level left
# Rattus norvegicus [13] = species on record: Rattus norvegicus; experiment: Inhibition of rat kidney Na(+)/K(+) ATPase at 1 mM after 2 hrs by Fiske and Subbarow method in presence of DTT
# Rattus norvegicus [14] = species on record: Rattus norvegicus; experiment: Inhibition of rat kidney Na(+)/K(+) ATPase assessed as enzyme activity at 1 mM after 2 hrs by Fiske and Subbarow method relative to control; parameters: scale not given: the % may be the effect or the level left
SMILES,Activity (Rattus norvegicus [1]),Activity (Rattus norvegicus [2]),Activity (Rattus norvegicus [3]),Activity (Rattus norvegicus [4]),IC50 [5],Activity (Rattus norvegicus [6]),Activity (Rattus norvegicus [7]),Activity (Rattus norvegicus [8]),IC50 [9],IC50 [10],Activity (Rattus norvegicus [11]),Activity (Rattus norvegicus [12]),Activity (Rattus norvegicus [13]),Activity (Rattus norvegicus [14])
COc1cc2c(cc1O)oc(=O)c1c3cc(O)c(O)cc3oc21,inactive,75.5%,inactive,Active,30 µM,6.9%,81.3%,Active,10 µM,3 µM,–,–,–,–
C[C@@H]1O[C@@H](O[C@H]2C[C@@H](O)[C@]3(CO)[C@H]4[C@H](O)C[C@]5(C)[C@@H](C6=CC(=O)OC6)CC[C@]5(O)[C@@H]4CC[C@]3(O)C2)[C@H](O)[C@H](O)[C@H]1O,–,–,–,–,–,–,–,–,–,–,12%,10.5%,Active,11.6%
